Measured values reported in patent US20250136619A1, “HETEROBIFUNCTIONAL COMPOUNDS AND THEIR USE IN TREATING DISEASE” (HALDA THERAPEUTICS OPCO, INC., priority 2021, published 2025).
pKd: −log10 of the molar value.

What was measured:
mTOR = mTOR (Homo sapiens (Human), UniProt P42345); experiment: KdELECT assay for binding affinity to mTOR
Description: (§1) Compounds were tested using a KdELECT assay. Kinase-tagged T7 phage strains were prepared in an E. coli host derived from the BL21 strain. E. coli were grown to log-phase and infected with T7 phage and incubated with shaking at 32° C. until lysis. The lysates were centrifuged and filtered to remove cell debris. The remaining kinases were produced in HEK-293 cells and subsequently tagged with DNA for qPCR detection. Streptavidin-coated magnetic beads were treated with biotinylated small molecule ligands for 30 minutes at room temperature to generate affinity resins for kinase assays. The liganded beads were blocked with excess biotin and washed with blocking buffer (SeaBlock (Pierce), 1% BSA, 0.05% Tween 20, 1 mM DTT) to remove unbound ligand and to reduce non-specific binding. Binding reactions were assembled by combining kinases, liganded affinity beads, and test compounds in 1×binding buffer (20% SeaBlock, 0.17×PBS, 0.05% Tween 20, 6 mM DTT). Test compounds were prepared as 111X stocks in 100% DMSO. Kd values were determined using an 11-point 3-fold compound dilution series with three DMSO control points. All compounds for Kd measurements are distributed by acoustic transfer (non-contact dispensing) in 100% DMSO. The compounds were then diluted directly into the assays such that the final concentration of DMSO was 0.9%. All reactions performed in polypropylene 384-well plate. Each was a final volume of 0.02 mL. The assay plates were incubated at room temperature with shaking for 1 hour and the affinity beads were washed with wash buffer (1×PBS, 0.05% Tween 20). The beads were then re-suspended in elution buffer (1×PBS, 0.05% Tween 20, 0.5 μM nonbiotinylated affinity ligand) and incubated at room temperature with shaking for 30 minutes. The kinase concentration in the eluates was measured by qPCR.

BTK = BTK (Homo sapiens (Human), UniProt Q06187); experiment: KdELECT assay for binding affinity to BTK
Chain of BTK (Q06187 whole entry, the tested form may be a part): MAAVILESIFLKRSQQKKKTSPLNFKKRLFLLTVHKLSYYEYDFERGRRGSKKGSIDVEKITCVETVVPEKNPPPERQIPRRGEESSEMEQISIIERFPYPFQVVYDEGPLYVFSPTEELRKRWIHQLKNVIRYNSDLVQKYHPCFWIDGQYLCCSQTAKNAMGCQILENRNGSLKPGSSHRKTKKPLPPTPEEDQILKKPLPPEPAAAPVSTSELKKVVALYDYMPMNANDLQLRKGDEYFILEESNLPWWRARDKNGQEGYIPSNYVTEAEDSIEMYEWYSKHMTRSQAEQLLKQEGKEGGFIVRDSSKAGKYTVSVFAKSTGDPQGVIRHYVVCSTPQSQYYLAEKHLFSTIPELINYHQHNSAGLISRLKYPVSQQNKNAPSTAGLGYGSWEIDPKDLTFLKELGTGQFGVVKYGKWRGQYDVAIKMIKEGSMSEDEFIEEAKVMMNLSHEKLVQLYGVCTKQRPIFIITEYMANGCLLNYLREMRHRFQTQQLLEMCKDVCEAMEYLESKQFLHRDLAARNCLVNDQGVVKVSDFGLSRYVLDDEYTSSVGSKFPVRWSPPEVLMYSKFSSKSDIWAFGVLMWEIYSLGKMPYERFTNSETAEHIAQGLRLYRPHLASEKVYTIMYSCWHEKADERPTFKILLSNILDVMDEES
Summary of the method: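 Competition binding of test compound against bead-immobilized biotinylated ligand; kinase as T7 phage fusion or HEK-293-expressed DNA-tagged protein. 11-point 3-fold dilution, 0.9% DMSO final, 1 h room temperature with shaking. Bound kinase eluted with 0.5 μM non-biotinylated ligand and quantified by qPCR; Kd derived.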

BRD4-BD1 = BRD4-BD1 (Homo sapiens (Human), UniProt O60885); experiment: bromoKdELECT assay for binding affinity to BRD4-BD1
Description: (§2) Compounds were tested using a bromoKdELECT assay. T7 phage strains displaying bromodomains were grown in parallel in 24-well blocks in an E. coli host derived from the BL21 strain. E. coli were grown to log-phase and infected with T7 phage from a frozen stock (multiplicity of infection=0.4) and incubated with shaking at 32° C. until lysis (90-150 minutes). The lysates were centrifuged (5,000×g) and filtered (0.2 μm) to remove cell debris. Streptavidin-coated magnetic beads were treated with biotinylated small molecule or acetylated peptide ligands for 30 minutes at room temperature to generate affinity resins for bromodomain assays. The liganded beads were blocked with excess biotin and washed with blocking buffer (SeaBlock (Pierce), 1% BSA, 0.05% Tween 20, 1 mM DTT) to remove unbound ligand and to reduce nonspecific phage binding. Binding reactions were assembled by combining bromodomains, liganded affinity beads, and test compounds in 1×binding buffer (17% SeaBlock, 0.33×PBS, 0.04% Tween 20, 0.02% BSA, 0.004% Sodium azide, 7.4 mM DTT). Test compounds were prepared as 1000X stocks in 100% DMSO. Kds were determined using an 11-point 3-fold compound dilution series with one DMSO control point. All compounds for Kd measurements are distributed by acoustic transfer (non-contact dispensing) in 100% DMSO. The compounds were then diluted directly into the assays such that the final concentration of DMSO was 0.09%. All reactions performed in polypropylene 384-well plates. Each was a final volume of 0.02 ml. The assay plates were incubated at room temperature with shaking for 1 hour and the affinity beads were washed with wash buffer (1×PBS, 0.05% Tween 20). The beads were then resuspended in elution buffer (1×PBS, 0.05% Tween 20, 2 μM non-biotinylated affinity ligand) and incubated at room temperature with shaking for 30 minutes. The bromodomain concentration in the eluates was measured by qPCR.

BRD4-BD2 = BRD4-BD2 (Homo sapiens (Human), UniProt O60885); experiment: bromoKdELECT assay for binding affinity to BRD4-BD2
Description: as §2

CDK1 = CDK1 (Homo sapiens (Human), UniProt P06493); experiment: KdELECT assay for binding affinity to CDK1
Chain of CDK1 (P06493 whole entry): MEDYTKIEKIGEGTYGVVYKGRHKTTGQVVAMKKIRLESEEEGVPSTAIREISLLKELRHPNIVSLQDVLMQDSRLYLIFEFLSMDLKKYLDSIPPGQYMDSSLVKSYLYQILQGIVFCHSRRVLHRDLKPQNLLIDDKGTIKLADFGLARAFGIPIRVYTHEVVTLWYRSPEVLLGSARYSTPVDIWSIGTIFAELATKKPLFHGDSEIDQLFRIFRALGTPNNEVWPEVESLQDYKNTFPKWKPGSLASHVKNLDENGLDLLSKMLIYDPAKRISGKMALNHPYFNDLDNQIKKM
Description: as §1

| Structure (SMILES) | pKd (mTOR) | pKd (BTK) | pKd (BRD4-BD1) | pKd (BRD4-BD2) | pKd (CDK1) |
| --- | --- | --- | --- | --- | --- |
| Nc1nc2cc(-c3nn(CCCCC(=O)NCCCCCCCC/C=C/C(=O)N4CCC[C@@H](n5nc(-c6ccc(Oc7ccccc7)cc6)c6c(N)ncnc65)C4)c4ncnc(N)c34)ccc2o1 [Compound I-2, 5-[4-amino-3-(2-amino-1,3-benzoxazol-5-yl)pyrazolo[3,4-d]pyrimidin-1-yl]-N—[(E)-11-[(3R)-3-[4-amino-3-(4-phenoxyphenyl)pyrazolo[3,4-d]pyrimidin-1-yl]-1-piperidyl]-11-oxo-undec-9-enyl]pentanamide] | 5.60 to 6.30 |  |  |  |  |
| C[C@@H]1COCCN1c1nc(N2CCOC[C@H]2C)c2ccc(-c3cccc(C(=O)NCCOCCOCCOCCOC/C=C/C(=O)N4CCC[C@@H](n5nc(-c6ccc(Oc7ccccc7)cc6)c6c(N)ncnc65)C4)c3)nc2n1 [Compound I-3, N-[2-[2-[2-[2-[(E)-4-[(3R)-3-[4-amino-3-(4-phenoxyphenyl)pyrazolo[3,4-d]pyrimidin-1-yl]-1-piperidyl]-4-oxo-but-2-enoxy]ethoxy]ethoxy]ethoxy]ethyl]-3-[2,4-bis[(3R)-3-methylmorpholin-4-yl]pyrido[2,3-d]pyrimidin-7-yl]benzamide] | 6.30 to 7.30 | 6.30 to 7.30 |  |  |  |
| C[C@@H]1COCCN1c1nc(N2CCOC[C@H]2C)c2ccc(-c3cccc(C(=O)NCCOCCOCCOCCOCCOCCOCCOCCOC/C=C/C(=O)N4CCC[C@@H](n5nc(-c6ccc(Oc7ccccc7)cc6)c6c(N)ncnc65)C4)c3)nc2n1 [Compound I-5, N-[2-[2-[2-[2-[2-[2-[2-[2-[(E)-4-[(3R)-3-[4-amino-3-(4-phenoxyphenyl)pyrazolo[3,4-d]pyrimidin-1-yl]-1-piperidyl]-4-oxo-but-2-enoxy]ethoxy]ethoxy]ethoxy]ethoxy]ethoxy]ethoxy]ethoxy]ethyl]-3-[2,4-bis[(3R)-3-methylmorpholin-4-yl]pyrido[2,3-d]pyrimidin-7-yl]benzamide] | 6.30 to 7.30 | > 7.30 |  |  |  |
| C[C@@H]1COCCN1c1nc(N2CCOC[C@H]2C)c2ccc(-c3cccc(C(=O)NCCCCCCCC/C=C/C(=O)N4CCC[C@@H](n5nc(-c6ccc(Oc7ccccc7)cc6)c6c(N)ncnc65)C4)c3)nc2n1 [Compound I-7, N—[(E)-11-[(3R)-3-[4-amino-3-(4-phenoxyphenyl)pyrazolo[3,4-d]pyrimidin-1-yl]-1-piperidyl]-11-oxo-undec-9-enyl]-3-[2,4-bis[(3R)-3-methylmorpholin-4-yl]pyrido[2,3-d]pyrimidin-7-yl]benzamide] | 6.30 to 7.30 | 6.30 to 7.30 |  |  |  |
| C[C@@H]1COCCN1c1nc(N2CCOC[C@H]2C)c2ccc(-c3cccc(C(=O)NCCCCCCCCOc4ccc(C(=O)NC5C(C)(C)C(Oc6ccc(C#N)c(Cl)c6)C5(C)C)cc4)c3)nc2n1 (stereo partly drawn) [Compound I-8, 3-[2,4-bis[(3R)-3-methylmorpholin-4-yl]pyrido[2,3-d]pyrimidin-7-yl]-N-[8-[4-[[3-(3-chloro-4-cyano-phenoxy)-2,2,4,4-tetramethyl-cyclobutyl]carbamoyl]phenoxy]octyl]benzamide] | < 5.60 | 6.30 to 7.30 |  |  |  |
| C[C@@H]1COCCN1c1nc(N2CCOC[C@H]2C)c2ccc(-c3cccc(C(=O)NCCOCCOCCOCCOCCOCCOCCOCCOCCOc4ccc(C(=O)N[C@H]5C(C)(C)[C@H](Oc6ccc(C#N)c(Cl)c6)C5(C)C)cc4)c3)nc2n1 [Compound I-9, N-[2-[2-[2-[2-[2-[2-[2-[2-[2-[4-[[3-(3-chloro-4-cyano-phenoxy)-2,2,4,4-tetramethyl-cyclobutyl]carbamoyl]phenoxy]ethoxy]ethoxy]ethoxy]ethoxy]ethoxy]ethoxy]ethoxy]ethoxy]ethyl]-3-[2-[(3R)-3-methylmorpholin-4-yl]-4-(3-methylmorpholin-4-yl)pyrido[2,3-d]pyrimidin-7-yl]benzamide] | > 7.30 |  |  |  |  |
| C[C@@H]1COCCN1c1nc(N2CCOC[C@H]2C)c2ccc(-c3cccc(C(=O)NCCOCCOCCOCCOCCOc4ccc(C(=O)NC5C(C)(C)C(Oc6ccc(C#N)c(Cl)c6)C5(C)C)cc4)c3)nc2n1 (some centres unmarked) [Compound I-10] | 6.30 to 7.30 |  |  |  |  |
| Cc1sc2c(c1C)C(c1ccc(Cl)cc1)=N[C@@H](CC(=O)NCCOCCOC/C=C/C(=O)N1CCC[C@@H](n3nc(-c4ccc(Oc5ccccc5)cc4)c4c(N)ncnc43)C1)c1nnc(C)n1-2 [Compound I-24, N-[2-[2-[(E)-4-[(3R)-3-[4-amino-3-(4-phenoxyphenyl)pyrazolo[3,4-d]pyrimidin-1-yl]-1-piperidyl]-4-oxo-but-2-enoxy]ethoxy]ethyl]-2-[(9S)-7-(4-chlorophenyl)-4,5,13-trimethyl-3-thia-1,8,11,12-tetrazatricyclo[8.3.0.02.6]trideca-2 (6),4,7,10,12-pentaen-9-yl]acetamide] |  | > 7.30 | 6.30 to 7.30 | > 7.30 |  |
| Cc1sc2c(c1C)C(c1ccc(Cl)cc1)=N[C@@H](CC(=O)NCCOCCOCCOCCOCCOCCOC/C=C/C(=O)N1CCC[C@@H](n3nc(-c4ccc(Oc5ccccc5)cc4)c4c(N)ncnc43)C1)c1nnc(C)n1-2 [Compound I-26, N-[2-[2-[2-[2-[2-[2-[(E)-4-[(3R)-3-[4-amino-3-(4-phenoxyphenyl)pyrazolo[3,4-d]pyrimidin-1-yl]-1-piperidyl]-4-oxo-but-2-enoxy]ethoxy]ethoxy]ethoxy]ethoxy]ethoxy]ethyl]-2-[(9S)-7-(4-chlorophenyl)-4,5, 13-trimethyl-3-thia-1,8, 11,12-tetrazatricyclo[8.3.0.0^2,6]trideca-2 (6),4,7,10, 12-pentaen-9-yl]acetamide] |  | > 7.30 | 6.30 to 7.30 | > 7.30 |  |
| Cc1sc2c(c1C)C(c1ccc(Cl)cc1)=N[C@@H](CC(=O)NCCCCCCCC/C=C/C(=O)N1CCC[C@@H](n3nc(-c4ccc(Oc5ccccc5)cc4)c4c(N)ncnc43)C1)c1nnc(C)n1-2 [Compound I-28, N—[(E)-11-[(3R)-3-[4-amino-3-(4-phenoxyphenyl)pyrazolo[3,4-d]pyrimidin-1-yl]-1-piperidyl]-11-oxo-undec-9-enyl]-2-[(9S)-7-(4-chlorophenyl)-4,5,13-trimethyl-3-thia-1,8,11,12-tetrazatricyclo[8.3.0.0^2,6]trideca-2 (6),4,7,10,12-pentaen-9-yl]acetamide] |  | 5.60 to 6.30 | < 5.60 | 5.60 to 6.30 |  |
| Cc1sc2c(c1C)C(c1ccc(Cl)cc1)=N[C@@H](CC(=O)NCCCN1CCN(CCCN(C)C/C=C/C(=O)N3CCC[C@@H](n4nc(-c5ccc(Oc6ccccc6)cc5)c5c(N)ncnc54)C3)CC1)c1nnc(C)n1-2 [Compound I-29, N-[3-[4-[3-[[(E)-4-[(3R)-3-[4-amino-3-(4-phenoxyphenyl)pyrazolo[3,4-d]pyrimidin-1-yl]-1-piperidyl]-4-oxo-but-2-enyl]-methyl-amino]propyl]piperazin-1-yl]propyl]-2-[(9S)-7-(4-chlorophenyl)-4,5, 13-trimethyl-3-thia-1,8, 11,12-tetrazatricyclo[8.3.0.0^2,6]trideca-2 (6),4,7,10,12-pentaen-9-yl]acetamide] |  | > 7.30 | > 7.30 | > 7.30 |  |
| Cc1sc2c(c1C)C(c1ccc(Cl)cc1)=N[C@@H](CC(=O)NCCOCCOCCOc1ccc(C(=O)NC3C(C)(C)C(Oc4ccc(C#N)c(Cl)c4)C3(C)C)cc1)c1nnc(C)n1-2 (some centres unmarked) [Compound I-32] |  |  | 5.60 to 6.30 | 6.30 to 7.30 |  |
| CCc1cnn2c(NCc3ccc(OCCOCCOCCOCCOCCOCCOCCOCCOCCOC/C=C/C(=O)N4CCC[C@@H](n5nc(-c6ccc(Oc7ccccc7)cc6)c6c(N)ncnc65)C4)nc3)cc(N3CCCC[C@H]3CCO)nc12 [Compound I-47] |  |  |  |  | < 5.60 |
